According to US11661426B2, “Imidazole-containing inhibitors of ALK2 kinase” (BioCryst Pharmaceuticals, Inc., priority 2017, dated 2023):

Molecular target: ALK2 (Homo sapiens (Human), UniProt Q04771)
Assay: ALK2 inhibition, LanthaScreen Eu Kinase Binding Assay (ThermoFisher Scientific / Life Technologies)
Conditions: read-out: Measured Ki (IC50) Value for Compounds: IC50
Method: Biochemical assays to measure the inhibitory effects of the compounds were performed by ThermoFisher Scientific (Life Technologies). ALK2 inhibition was tested using LanthaScreen™ Eu Kinase Binding Assay screening protocol.

Sequence of ALK2 (Q04771 21-509): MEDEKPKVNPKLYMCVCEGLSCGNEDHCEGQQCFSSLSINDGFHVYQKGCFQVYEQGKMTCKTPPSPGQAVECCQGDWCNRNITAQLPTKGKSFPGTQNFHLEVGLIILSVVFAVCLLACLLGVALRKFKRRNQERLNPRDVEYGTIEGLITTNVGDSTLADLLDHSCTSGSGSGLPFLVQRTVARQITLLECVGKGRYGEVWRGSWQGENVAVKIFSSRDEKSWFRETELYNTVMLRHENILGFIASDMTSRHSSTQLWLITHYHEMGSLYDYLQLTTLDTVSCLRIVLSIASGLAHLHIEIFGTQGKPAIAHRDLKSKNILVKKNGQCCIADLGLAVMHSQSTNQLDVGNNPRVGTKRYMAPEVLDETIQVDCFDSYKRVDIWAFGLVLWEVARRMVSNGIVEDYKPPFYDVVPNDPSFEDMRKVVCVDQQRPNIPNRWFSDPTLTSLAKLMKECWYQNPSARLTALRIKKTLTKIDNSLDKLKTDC

IC50 | Compound
< 100 nM | COC(=O)c1cc(-n2cnc(Nc3nc(N4CCC[C@H]4CO)c4cccn4n3)c2)cc(OC)c1OC [Compound 355a, (S)-methyl 5-(4-((4-(2-(hydroxymethyl)pyrrolidin-1-yl)pyrrolo[2,1-f][1,2,4]triazin-2-yl)amino)-1H-imidazol-1-yl)-2,3-dimethoxybenzoate]
< 100 nM | OC[C@@H]1CCCN1c1nc(Nc2cn(-c3cn(C4CC4)cn3)cn2)c2cccn2n1 [Compound 449d, (S)-(1-(4-((1′-cyclopropyl-1′H-[1,4′-biimidazol]-4-yl)amino)pyrrolo[2,1-f][1,2,4]triazin-2-yl)pyrrolidin-2-yl)methanol]
> 1000 nM | Cc1cc(OC(F)(F)F)cc(-n2cnc(Nc3nc(N4CCC[C@H]4CO)c4cccn4n3)c2)c1 [Compound 263d, (S)-(1-(2-((1-(3-methyl-5-(trifluoromethoxy)phenyl)-1H-imidazol-4-yl)amino)pyrrolo[2,1-f][1,2,4]triazin-4-yl)pyrrolidin-2-yl)methanol]
< 100 nM | COc1cc(-n2cnc(Nc3nc(-c4cccc(C=O)c4)nc4sc(CO)cc34)c2)cc(OC)c1OC [Compound 109a, 3-(6-(hydroxymethyl)-4-((1-(3,4,5-trimethoxyphenyl)-1H-imidazol-4-yl)amino)thieno[2,3-d]pyrimidin-2-yl)benzaldehyde]
< 100 nM | COc1cc(-n2cnc(Nc3nc(N4CCC[C@H]4CO)nn4c(CNC(C)C)ccc34)c2)cc(OC)c1OC [Compound 129b, (S)-(1-(7-((isopropylamino)methyl)-4-((1-(3,4,5-trimethoxyphenyl)-1H-imidazol-4-yl)amino)pyrrolo[2,1-f][1,2,4]triazin-2-yl)pyrrolidin-2-yl)methanol]
< 100 nM | COc1cc(-n2cnc(Nc3nc(N4CCC[C@@H]4CO)c4occc4n3)c2)cc(OC)c1OC [Compound 301b, (R)-(1-(2-((1-(3,4,5-trimethoxyphenyl)-1H-imidazol-4-yl)amino)furo[3,2-d]pyrimidin-4-yl)pyrrolidin-2-yl)methanol]
< 100 nM | COc1cc(-n2cnc(Nc3nc(N4CCC[C@H]4CO)nc4c3cnn4CC3CCCCC3)c2)cc(OC)c1OC [Compound 453d, (S)-(1-(1-(cyclohexylmethyl)-4-((1-(3,4,5-trimethoxyphenyl)-1H-imidazol-4-yl)amino)-1H-pyrazolo[3,4-d]pyrimidin-6-yl)pyrrolidin-2-yl)methanol]
100 to 1000 nM | COc1cc(-n2cnc(Nc3nc(N4CCC[C@H]4CO)c4cccn4n3)n2)cc(OC)c1OC [Compound 415d, (S)-(1-(2-((1-(3,4,5-trimethoxyphenyl)-1H-1,2,4-triazol-3-yl)amino)pyrrolo[2,1-f][1,2,4]triazin-4-yl)pyrrolidin-2-yl)methanol]
< 100 nM | COc1cc(-n2cnc(Nc3ccc4ccc(Nc5cn(-c6cc(OC)c(OC)c(OC)c6)cn5)cc4c3)c2)cc(OC)c1OC [Compound 208b, N^2,N^7-bis(1-(3,4,5-trimethoxyphenyl)-1H-imidazol-4-yl)naphthalene-2,7-diamine]
< 100 nM | COc1cc(-n2cnc(Nc3nc(N4CCC[C@H]4C(N)=O)nn4c(CN5CCC[C@H]5C(N)=O)ccc34)c2)cc(OC)c1OC [Compound 118b, (S)-1-((2-((S)-2-carbamoylpyrrolidin-1-yl)-4-((1-(3,4,5-trimethoxyphenyl)-1H-imidazol-4-yl)amino)pyrrolo[2,1-f][1,2,4]triazin-7-yl)methyl)pyrrolidine-2-carboxamide]
< 100 nM | COc1cc(-n2cnc(Nc3nc(N4CCC[C@@H]4CO)c4ccsc4n3)c2)cc(OC)c1OC [Compound 309b, (R)-(1-(2-((1-(3,4,5-trimethoxyphenyl)-1H-imidazol-4-yl)amino)thieno[2,3-d]pyrimidin-4-yl)pyrrolidin-2-yl)methanol]
> 1000 nM | Nc1n[nH]c2ccccc12 [Compound 353a, 1H-indazol-3-amine]
< 100 nM | OC[C@@H]1CCCN1c1nc(Nc2cn([C@H]3CC[C@H](CO)CC3)cn2)c2cccn2n1 [Compound 474e, ((S)-1-(4-((1-((trans)-4-(hydroxymethyl)cyclohexyl)-1H-imidazol-4-yl)amino)pyrrolo[2,1-f][1,2,4]triazin-2-yl)pyrrolidin-2-yl)methanol]
< 100 nM | COc1cc(-n2cnc(Nc3nc(N4CCCC4)nn4cccc34)c2)cc(OC)c1OC [Compound 156a, 2-(pyrrolidin-1-yl)-N-(1-(3,4,5-trimethoxyphenyl)-1H-imidazol-4-yl)pyrrolo[2,1-f][1,2,4]triazin-4-amine]
> 1000 nM | OC[C@@H]1CCCN1c1nc(Nc2nc3ccccc3o2)c2sccc2n1 [Compound 352c, (S)-(1-(4-(benzo[d]oxazol-2-ylamino)thieno[3,2-d]pyrimidin-2-yl)pyrrolidin-2-yl)methanol]
< 100 nM | COc1cc(-n2cnc(Nc3nc(N4CC[C@@H](O)C4)c4cccn4n3)c2)cc(OC)c1OC [Compound 209b, (R)-1-(2-((1-(3,4,5-trimethoxyphenyl)-1H-imidazol-4-yl)amino)pyrrolo[2,1-f][1,2,4]triazin-4-yl)pyrrolidin-3-ol]

IC50 | Compound
< 100 nM | COc1cc(-n2cnc(Nc3nc(N4CCCC4)c4cccnc4n3)c2)cc(OC)c1OC [Compound 192b, 4-(pyrrolidin-1-yl)-N-(1-(3,4,5-trimethoxyphenyl)-1H-imidazol-4-yl)pyrido[2,3-d]pyrimidin-2-amine]
< 100 nM | COc1cc(-n2cnc(Nc3nc(N4CCCC4)nc4ncccc34)c2)cc(OC)c1OC [Compound 186a, 2-(pyrrolidin-1-yl)-N-(1-(3,4,5-trimethoxyphenyl)-1H-imidazol-4-yl)pyrido[2,3-d]pyrimidin-4-amine]
< 100 nM | OC[C@@H]1CCCN1c1nc(Nc2cn(-c3ccc(O)cc3)cn2)c2cccn2n1 [Compound 48c, (S)-4-(4-((2-(2-(hydroxymethyl)pyrrolidin-1-yl)pyrrolo[2,1-f][1,2,4]triazin-4-yl)amino)-1H-imidazol-1-yl)phenol]
< 100 nM | CC(=O)c1cccc(-n2cnc(Nc3nc(N4CCC[C@H]4CO)nn4cccc34)c2)c1 [Compound 47c, (S)-1-(3-(4-((2-(2-(hydroxymethyl)pyrrolidin-1-yl)pyrrolo[2,1-f][1,2,4]triazin-4-yl)amino)-1H-imidazol-1-yl)phenyl)ethanone]
100 to 1000 nM | COc1cc(-n2cnc(Nc3nc(N4CCC[C@H]4C(N)=O)c4occc4n3)c2)cc(OC)c1OC [Compound 151b, (S)-1-(2-((1-(3,4,5-trimethoxyphenyl)-1H-imidazol-4-yl)amino)furo[3,2-d]pyrimidin-4-yl)pyrrolidine-2-carboxamide]
< 100 nM | Cn1cnc(Nc2nc(N3CCCC3c3ccccc3)nn3cccc23)c1 (centres unmarked) [Compound 10a, N-(1-methyl-1H-imidazol-4-yl)-2-(2-phenylpyrrolidin-1-yl)pyrrolo[2,1-f][1,2,4]triazin-4-amine]
< 100 nM | COc1cc(-n2cnc(Nc3nc(N4CCCCC4)c4ccc(CN5CCCC5)cc4n3)c2)cc(OC)c1OC [Compound 409e, 4-(piperidin-1-yl)-7-(pyrrolidin-1-ylmethyl)-N-(1-(3,4,5-trimethoxyphenyl)-1H-imidazol-4-yl)quinazolin-2-amine]
< 100 nM | CCn1nc(C)c2c(N3CCC[C@H]3CO)nc(Nc3cn(-c4cc(OC)c(OC)c(OC)c4)cn3)nc21 [Compound 458c, (S)-(1-(1-ethyl-3-methyl-6-((1-(3,4,5-trimethoxyphenyl)-1H-imidazol-4-yl)amino)-1H-pyrazolo[3,4-d]pyrimidin-4-yl)pyrrolidin-2-yl)methanol]
< 100 nM | N#Cc1cccc(-n2cnc(Nc3nc(N4CCC[C@H]4CO)nn4cccc34)c2)c1 [Compound 119c, (S)-3-(4-((2-(2-(hydroxymethyl)pyrrolidin-1-yl)pyrrolo[2,1-f][1,2,4]triazin-4-yl)amino)-1H-imidazol-1-yl)benzonitrile]
< 100 nM | COc1cc(-n2cnc(Nc3nc(N4CCC[C@@H]4C(N)=O)nc4c3CCCC4)c2)cc(OC)c1OC [Compound 313a, (R)-1-(4-((1-(3,4,5-trimethoxyphenyl)-1H-imidazol-4-yl)amino)-5,6,7,8-tetrahydroquinazolin-2-yl)pyrrolidine-2-carboxamide]
< 100 nM | COc1cc(-n2cnc(Nc3nc4c(c(N5CCC[C@H]5CO)n3)CCN(CC(N)=O)C4)c2)cc(OC)c1OC [Compound 218a, (S)-2-(4-(2-(hydroxymethyl)pyrrolidin-1-yl)-2-((1-(3,4,5-trimethoxyphenyl)-1H-imidazol-4-yl)amino)-5,6-dihydropyrido[3,4-d]pyrimidin-7(8H)-yl)acetamide]
< 100 nM | COc1cc(-n2cnc(Nc3nc(N4CCC[C@@H]4C(N)=O)nc4cc(OC(C)C)ccc34)c2)cc(OC)c1OC [Compound 277a, (R)-1-(7-isopropoxy-4-((1-(3,4,5-trimethoxyphenyl)-1H-imidazol-4-yl)amino)quinazolin-2-yl)pyrrolidine-2-carboxamide]
< 100 nM | COc1cc(-n2cnc(Nc3nc(N4CCC[C@H]4CO)c4c(C)nn(CC5CCCCC5)c4n3)c2)cc(OC)c1OC [Compound 438c, (S)-(1-(1-(cyclohexylmethyl)-3-methyl-6-((1-(3,4,5-trimethoxyphenyl)-1H-imidazol-4-yl)amino)-1H-pyrazolo[3,4-d]pyrimidin-4-yl)pyrrolidin-2-yl)methanol]
> 1000 nM | COc1cc(-n2cnc(Nc3nc(N4CCC[C@H]4C(N)=O)nc4c3c(C)nn4C3CCCCO3)c2)cc(OC)c1OC (stereo partly drawn) [Compound 401a, (2S)-1-(3-methyl-1-(tetrahydro-2H-pyran-2-yl)-4-((1-(3,4,5-trimethoxyphenyl)-1H-imidazol-4-yl)amino)-1H-pyrazolo[3,4-d]pyrimidin-6-yl)pyrrolidine-2-carboxamide]
< 100 nM | COc1cc(-n2cnc(Nc3nc(N4CCN(CCO)CC4)nc4sccc34)c2)cc(OC)c1OC [Compound 422a, 2-(4-(4-((1-(3,4,5-trimethoxyphenyl)-1H-imidazol-4-yl)amino)thieno[2,3-d]pyrimidin-2-yl)piperazin-1-yl)ethanol]
< 100 nM | COc1cc(-n2cnc(Nc3nc(N4CCCC4)c4sccc4n3)c2)cc(OC)c1OC [Compound 207b, 4-(pyrrolidin-1-yl)-N-(1-(3,4,5-trimethoxyphenyl)-1H-imidazol-4-yl)thieno[3,2-d]pyrimidin-2-amine]
